The source of these data is patent US9447136B2, “Semisynthetic derivatives of Nystatin A1” (BLIRT S.A., priority 2012, dated 2016).

This data set is classed as physicochemical. The text has this:
As described herein, a compound of the invention may also be provided in the form of a complex, with a complexing agent.

`CCCN(CC(=O)C(O)C(O)C(O)CO)C1C(O)C(C)OC(OC2C=CC=CC=CC=CCCC=CC=CC(C)C(O)C(C)C(C)OC(=O)CC(O)CC(O)CCC(O)C(O)CC(O)CC3(O)CC(O)C(C(=O)O)C(C2)O3)C1O.CNCC(O)C(O)C(O)C(O)CO` [Compound N59, N-methyl-D-glucamine salt of N-fructosyl-N-n-propylnystatin A1]: the “water solubility of the salt” value is given as “water soluble”.
